What is called Ki is a measure of affinity in units of concentration, obtained from inhibition or displacement. Lower therefore signals a stronger hold on the target.

This experiment is described as follows: Tested for the ability to inhibit Ins(1,4,5)P 3-phosphatase.

For `OC1C(O)C(OP(O)(O)=S)C(OP(O)(O)=S)C(O)C1OP(O)(O)=S` (stereo not drawn) [(-)-chiro-inositol 1,4,6-trisphosphorothioate], the inhibition constant (Ki) was determined as 978 µM.

These data come from BindingDB's records for doi:10.1016/S0960-894X(00)80421-7 (1992).
